The NIST ThermoML archive (doi:10.1021/je049895b)

Assay: xn = mol fraction of the nth substance listed
Conditions: 101.33 kPa, Liquid; for viscosity: Capillary tube (Ostwald / Ubbelohde) method

CCOC(=O)OCC [diethyl carbonate] + CC1CCCCC1
Conditions	speed of sound, 293.15 K [m/s]	speed of sound, 298.15 K [m/s]	speed of sound, 303.15 K [m/s]	speed of sound, 308.15 K [m/s]	speed of sound, 313.15 K [m/s]	viscosity, 293.15 K [mPa·s]	viscosity, 298.15 K [mPa·s]	viscosity, 303.15 K [mPa·s]	viscosity, 308.15 K [mPa·s]	viscosity, 313.15 K [mPa·s]
x1 = 0.0473	1229	1207	1185	1164	1142	0.709	0.662	0.621	0.583	0.548
x1 = 0.0978	1222	1201	1179	1157	1136	0.692	0.647	0.607	0.57	0.537
x1 = 0.1985	1211	1189	1168	1146	1125	0.678	0.633	0.593	0.558	0.525
x1 = 0.2968	1203	1181	1160	1138	1117	0.67	0.627	0.588	0.553	0.521
x1 = 0.3924	1196	1175	1154	1132	1111	0.672	0.628	0.589	0.554	0.522
x1 = 0.4993	1192	1171	1149	1128	1107	0.68	0.635	0.596	0.561	0.529
x1 = 0.5999	1189	1168	1147	1126	1105	0.695	0.649	0.609	0.572	0.539
x1 = 0.6985	1189	1168	1147	1126	1106	0.709	0.663	0.622	0.584	0.55
x1 = 0.7988	1191	1170	1149	1128	1108	0.732	0.684	0.642	0.603	0.568
x1 = 0.8996	1194	1173	1152	1132	1112	0.762	0.711	0.666	0.625	0.588
x1 = 0.9509	1196	1175	1155	1134	1114	0.787	0.735	0.687	0.645	0.607
x1 = 1	1198	1177	1157	1136	1116	0.809	0.75	0.702	0.658	0.618
